# Source: paper PMC8523698, “Preclinical characterization of an intravenous coronavirus 3CL protease inhibitor for the potential treatment of COVID19” (Nature Communications, 2021)
# Where “and” joins values, the source holds several entries; their conditions need not be identical. Equal entries are not always repeated.
# Tested on: HCoV-229E
# Assay: Viral CPE assay in MRC-5 cells (CellTiter Glo)
# Format: cell-based
smiles,measurement,setting,value
COc1cccc2[nH]c(C(=O)N[C@@H](CC(C)C)C(=O)N[C@@H](C[C@@H]3CCNC3=O)C(=O)CO)cc12 [PF-00835231-00],% Well Effect,"0.000938825 uM, minus efflux inhibitor, EC50 run 17-Apr-2020",-3.33% and -1.20%
same,% Well Effect,"0.000938825 uM, minus efflux inhibitor, EC50 run 24-Apr-2020",15.19% and 11.15%
same,% Well Effect,"0.000949267 uM, minus efflux inhibitor, EC50 run 11-Apr-2020",5.04% and 4.22% and -1.30% and -1.77%
same,% Well Effect,"0.00297326 uM, minus efflux inhibitor, EC50 run 17-Apr-2020",-5.19% and 4.25%
same,% Well Effect,"0.00297326 uM, minus efflux inhibitor, EC50 run 24-Apr-2020",5.52% and -0.60%
same,% Well Effect,"0.00300158 uM, minus efflux inhibitor, EC50 run 11-Apr-2020",4.34% and 3.84% and 1.15% and -4.56%
same,% Well Effect,"0.007813 uM, minus efflux inhibitor, EC50 run 30-Apr-2020",0.98% and 0.83%
same,% Well Effect,"0.00941631 uM, minus efflux inhibitor, EC50 run 17-Apr-2020",1.75% and 4.31%
same,% Well Effect,"0.0298215 uM, minus efflux inhibitor, EC50 run 17-Apr-2020",23.90% and 29.75%
same,% Well Effect,"0.0298215 uM, minus efflux inhibitor, EC50 run 24-Apr-2020",-2.80% and 5.98%
same,% Well Effect,"0.0300105 uM, minus efflux inhibitor, EC50 run 11-Apr-2020",22.27% and 25.51% and 18.77% and 17.89%
same,% Well Effect,"0.03125 uM, minus efflux inhibitor, EC50 run 30-Apr-2020",10.60% and 5.67%
same,% Well Effect,"0.0625 uM, minus efflux inhibitor, EC50 run 30-Apr-2020",34.90% and 38.53%
same,% Well Effect,"0.0944446 uM, minus efflux inhibitor, EC50 run 17-Apr-2020",86.84% and 95.70%
same,% Well Effect,"0.0944446 uM, minus efflux inhibitor, EC50 run 24-Apr-2020",19.60% and 23.25%
same,% Well Effect,"0.0948933 uM, minus efflux inhibitor, EC50 run 11-Apr-2020",74.74% and 86.04% and 87.19% and 85.97%
same,% Well Effect,"0.09491 uM, minus efflux inhibitor, EC50 run 3-Apr-2020",60.58% and 66.48% and 51.57% and 67.27%
same,% Well Effect,"0.299106 uM, minus efflux inhibitor, EC50 run 17-Apr-2020",107.11% and 115.95%
same,% Well Effect,"0.299106 uM, minus efflux inhibitor, EC50 run 24-Apr-2020",59.17% and 71.11%
same,% Well Effect,"0.300053 uM, minus efflux inhibitor, EC50 run 11-Apr-2020",109.88% and 116.26% and 114.19% and 115.61%
same,% Well Effect,"0.300105 uM, minus efflux inhibitor, EC50 run 3-Apr-2020",99.66% and 103.56% and 105.08% and 101.55%
same,% Well Effect,"0.5 uM, minus efflux inhibitor, EC50 run 30-Apr-2020",102.45% and 101.06%
same,% Well Effect,"0.947269 uM, minus efflux inhibitor, EC50 run 17-Apr-2020",102.69% and 111.34%
same,% Well Effect,"0.947269 uM, minus efflux inhibitor, EC50 run 24-Apr-2020",73.36% and 89.87%
same,% Well Effect,"0.948767 uM, minus efflux inhibitor, EC50 run 11-Apr-2020",109.36% and 109.78% and 108.04% and 112.87%
same,% Well Effect,"0.948933 uM, minus efflux inhibitor, EC50 run 3-Apr-2020",100.40% and 104.08% and 100.39% and 101.88%
same,% Well Effect,"1 uM, minus efflux inhibitor, EC50 run 30-Apr-2020",105.73% and 102.25%
same,% Well Effect,"3 uM, minus efflux inhibitor, EC50 run 11-Apr-2020",107.90% and 109.07% and 108.64% and 109.54%
same,% Well Effect,"3 uM, minus efflux inhibitor, EC50 run 17-Apr-2020",101.53% and 109.98%
same,% Well Effect,"3 uM, minus efflux inhibitor, EC50 run 24-Apr-2020",75.89% and 83.80%
same,% Well Effect,"3 uM, plus 0.5 uM efflux inhibitor, EC50 run 22-may-2020",87.68%
same,% Well Effect,"3 uM, plus 0.5 uM efflux inhibitor, EC50 run 24-Apr-2020",59.97%
same,% Well Effect,"3.00053 uM, minus efflux inhibitor, EC50 run 3-Apr-2020",99.82% and 106.83% and 102.14% and 104.18%
same,% Well Effect,"9.48767 uM, minus efflux inhibitor, EC50 run 3-Apr-2020",101.96% and 104.70% and 102.25% and 105.36%
same,% Well Effect,"30 uM, minus efflux inhibitor, EC50 run 3-Apr-2020",102.99% and 107.66% and 105.96% and 105.84%
